Results taken from paper PMC8623418, “Novel Multitarget Hydroxamic Acids with a Natural Origin CAP Group against Alzheimer’s Disease: Synthesis, Docking and Biological Evaluation” (Pharmaceutics, 2021).

Legend:
[1] = test system: 5xFAD transgenic mice; experiment: Ex vivo electron transport chain activity of brain mitochondria (Seahorse OCR); assay type: in vivo; settings: brain mitochondrial p2 fraction of treated 5xFAD mice
Description: (§1) At the end of the in vivo series of experiments, the animals’ brains were sampled for further measurement of the lipid peroxidation level, as well as glutathione content in mouse brain homogenates. A synaptosomal p2 fraction containing mitochondria was also isolated to investigate the bioenergetic characteristics of organelles.
The study on the effect of the electron transport chain complexes was carried out on a preparation of the mitochondrial p2 fraction of the brain (10 µg/well) using the Agilent Seahorse XF96e Analyzer (Seahorse Bioscience, Santa Clara, CA, USA) to measure the rate of oxygen uptake under the action of modulators. For this purpose, the activators of the electron transport chain complex I-glutamate/malate, the inhibitor of complex I, rotenone (2 µM), the substrate of complex II, potassium succinate ([…]), the inhibitor of complex III, antimycin A, and the substrates of complex IV, ascorbate, were used/TMPD (0.5 µM).
To evaluate mitochondrial functioning, we determined the functioning of the respiratory chain complexes using Seahorse Bioanalyzer. […] However, the oxygen consumption rate (OCR) was increased in transgenic animals treated with the test compounds.

[2] = test system: 5xFAD transgenic mice; experiment: Ex vivo total glutathione in mouse brain homogenate; settings: post-mortem, versus 5xFAD mice
Description: as §1
The performance of the glutathione system of the cell’s own antioxidant defense was evaluated using a commercially available kit (Glutathione Assay Kit, Sigma Aldrich, Saint Louis, MO, USA) in accordance with the protocol provided by the manufacturer. The total glutathione level was determined by spectrophotometric measurement at a wavelength of 412 nm by the amount of 2-nitro-5-thiobenzoic acid, a product formed during the reduction of GSH 5,5′-dithiobis-(2-nitrobenzoic acid).
The glutathione content was estimated using the method based on measurement of the absorption of a colored compound formed during the colorimetric reaction of DTNB with SH groups of glutathione. […] Therefore, the level of lipid peroxidation of mouse brain homogenates was also measured by its final product, malondialdehyde. […]

[3] = test system: 5xFAD transgenic mice; experiment: Morris Water Maze Test in 5xFAD mice; assay type: in vivo; settings: for Mean latency time to hidden platform, first training day / Mean latency time to hidden platform, fourth training day: 15 mg/kg i.p. for 20 days, mean ± SEM; for Mean latency time to hidden platform, first training day: day 1; for Mean latency time to hidden platform, fourth training day: day 4
Description: All animal procedures were approved by the Animal Care and Use Committee of IPAC RAS. For in vivo studies, 11-month-old male mice of the 5xFAD line (Tg(APPSwFlLon,PSEN1*M146L*L286V) 6799Vas/J) were used. The animals were housed in cages with free access to water and food in a room with a 12 h/12 h light–dark cycle, at a temperature of 23 ± 1 °C and humidity of 50 ± 5%. Before the series of experiments, animals were randomly divided into four groups (n = 8 per group): (1) wild-type group (C57BL6/j mouse line); (2) 5xFAD group; (3) 5xFAD + 15 group; and (4) 5xFAD + 25 group. Both compounds 15 and 25 were dissolved in saline solution and DMSO (10%) immediately before use and intraperitoneally administered to animals for 20 days at a dose of 15 mg/kg body weight for experiments. In the control group, the vehicle solution (saline and DMSO (10%), intraperitoneal) was administered with the same time schedule. The Morris Water Maze Test was performed based on the Morris paradigm, 1985, modified. This test allowed us to evaluate spatial learning and memory formation in mice. The experimental apparatus consisted of a circular pool (diameter, 150 cm; height, 60 cm; OpenScience, Russia) containing water at 22 ± 1 °C. The lighting conditions were as follows: dark side of the pool was 50 lx; bright side was 75 lx. The pool was equally divided into quadrants. A platform (diameter, 10 cm) was positioned inside the reservoir, placed 1 cm below the water surface in the target quadrant of the maze. The platform and pool were white with anti-glare coating, which, together with shadowless lamp lighting, created the effect of an invisible platform that was hidden under the water. As visual cues, we used 4 figures (OpenScience, Moscow, Russia) fixed on the racks and located at the pool sides. The test is based on two phases: the acquisition phase (training days) and the retention phase (probe trial) (Figure 7A). Initially, the training session was performed, during which each animal was placed into the water facing the pool wall. After placing, each animal was given 60 s to find and mount onto the hidden platform. […] Each mouse received training sessions, and the test was repeated four times for four consecutive days in acquisition training (sum 16 trials for training). All 4 start positions for each day (north, south, east, west) were deliberately randomized. The probe trial was performed on the 5th day after the training phase: there were no platform and the mice were given 90 s for swimming. The criteria for the effectiveness of learning and memory formation were the time spent in the target and wrong quadrants, the latency period, and the number of entries to the platform area.

[4] = 5th day, versus untreated 5xFAD

| SMILES | Oxygen consumption rate (OCR) after injection of succinate ([1]; complex II) [pmol/min] | Oxygen consumption rate (OCR) after injection of ascorbate ([1]; complex IV) [pmol/min] | Total glutathione content in brain [2] | Mean latency time to hidden platform, first training day [3] [s] | Mean latency time to hidden platform, fourth training day [3] [s] | Probe trial: entries to the platform zone [3, 4] | Probe trial: latency for entering the platform zone [3, 4] | Platform search strategies (egocentric to allocentric navigation) ([3]; training phase, 15 mg/kg i.p.) | melting point [°C] | Probe trial: time spent in the wrong quadrant [3, 4] |
| --- | --- | --- | --- | --- | --- | --- | --- | --- | --- | --- |
| O=C(CCCCCCC(=O)NC1C2CC3CC(C2)CC1C3)NO (centres unmarked) [compound 15, N^1-(Adamant-2-yl)-N^8-Hydroxyoctanediamide] | 251.00 ± 10.45 | 422.67 ± 14.61 | tended to recover this parameter | 53.76 ± 2.79 | 34.28 ± 4.32 | increased entries to the platform | significantly reduced the latency for entering the platform zone | normalization of this situation and the successful formation of the allocentric cognitive map | 133.6 |  |
| O=C(/C=C/c1ccc(C(=O)NO)cc1)NC1C2CC3CC(C2)CC1C3 (centres unmarked) [compound 25, 4-((E)-3-((-Adamantan-2-yl)amino)-3-Oxoprop-1-en-1-yl)-N-Hydroxybenzamide] |  |  |  | 53.46 ± 2.75 | 38.63 ± 3.01 | improvement in these spatial memory parameters was also observed | improvement in these spatial memory parameters was also observed |  |  | significant differences were found in the time spent in the wrong quadrant |
